Reference: PMC9832347 (2023)

System: Probe DNA / complementary DNA (porcine) hybrid (DNA, duplex) CTGATAGTAGATTTGTGATGACCGTAGCCC/CTACGGTCATCACAAATCTACTATCAG
Test: differential pulse voltammetry, redox indicator on DNA electrode
Conditions: 30 μM 2b mixed with complementary DNA 1 × 10^-8 M; buffer wash; peak 1.45 μA; qualitative

**Q.** Which binding does the source give for CC1=NCCNC(C)(C)CC(C)=NCCNC(C)(C)C1.[Cu+2] here?
**A.** yes
